According to ChEMBL document CHEMBL2407074, “Three dimensional structure of a bacterial α-l-fucosidase with a 5-membered iminocyclitol inhibitor” (Bioorg Med Chem, 2013):

What was measured:
[1] = Inhibition of Bacteroides thetaiotaomicron recombinant alpha-L-fucosidase using 2-chloro-4-nitrophenyl-alpha-L-fucopyranoside as substrate after 5 mins by Michaelis Menten equation analysis
[2] = Inhibition of bovine kidney fucosidase; set-up: species or system Bos taurus

C[C@@H]1N[C@@H](c2nc3ccccc3[nH]2)[C@H](O)[C@@H]1O
Ki [1]: 2000 nM
Ki [2]: 80 nM
